Measurements reported in patent US4355043A, “Novel derivatives of 3-aminopropanesulfonic acid having a reinforced activity on membrane” (Les Laboratoires Meram, priority 1979, dated 1982).
Read-outs that look alike come from different tables or passages of the source.

What was measured:
erythrocyte membrane = test: stabilising effect on the erythrocyte membrane (haemolysis in hypotonic medium and with heat); assay type: cell-based, rabbit
Description: Nature (1970) 225, Mar. 21, 1150-1151.

[1] = test system: muscle fatigued by application of lactic acid; test: test of the muscle fatigued by application of lactic acid; assay type: in vivo; settings: comparison within the series
Description: (§1) It is furthermore suitable for the manufacture of aqueous solutions.

[2] = mouse, in vivo, ip
[3] = test system: convulsions caused by pentetrazol; test: anti-convulsivant action on convulsions caused by pentetrazol; assay type: in vivo, mouse
Method: The compounds according to the invention also present an anti-convulsivant action on the convulsions caused in the mouse by pentetrazol: After administration of pentetrazol, the time of appearance of the convulsions and the time of appearance of death is measured, in the animals which previously received, by the intraperitoneal route, the product to be tested, comparatively to controls receiving only pentetrazol.

hypermotility by ethanol = test: antagonism of the hypermotility caused by ethanol (Cott-Carlsson Engel Lindqvist test); assay type: in vivo, mouse; settings: for antagonism of ethanol hypermotility / sedative activity, ranking: mouse, per os, comparison in words
Method: The motility of the mice placed in the actimeter is recorded immediately after this injection, every 5 minutes, for 60 minutes. The percentage of variation of the motility of the mice treated with ethanol with respect to the controls receiving water is determined, and of mice treated with the product to be tested and with ethanol with respect to mice receiving only ethanol.

narcosis by ethanol = test: potentialization of narcosis by ethanol; assay type: in vivo; settings: mouse, oral route, comparison within the series
Description: as §1

in vivo = settings: mouse, ip
[4] = LD50 toxicity in the mouse (Table I; text); settings: for change of LD50 of the cation against the reference salt: expressed as cation
[5] = rectal temperature (hypothermia); assay type: in vivo; settings: rat
[6] = rabbit red cells in vitro, hypotonic medium pH 7.4, 53° C., read-out: ED50, stabilising effect on the erythrocyte membrane
[7] = LD50 expressed in Mg++ or Li+, intraperitoneal route

For `CC(=O)NCCCS(=O)(=O)O` [Potassium acetylhomotaurinate, 3-acetylaminopropanesulfonate of potassium], the EC50 (erythrocyte membrane; [6]) was 5 mM, the “activity in the test of the muscle fatigued by lactic acid” value [1] was “the most active” and the LD50 [2] was 4120 mg/kg. For the same compound, the “LD50 expressed as cation” value [2] was 733 mg cation/kg, the “time of appearance of death” value ([3]; 315 mg/kg i.p.) was “increase, without reaching the level of significance” and the “time of appearance of the convulsions” value ([3]; 315 mg/kg i.p.) was “increase, without reaching the level of significance”.
In the case of `CC(=O)NCCS(=O)(=O)O` [Magnesium acetyltaurinate, reference compound], the “antagonism of the hypermotility by ethanol, result” value (“antagonism … result” below) (hypermotility by ethanol; 100 mg per os) is reported as “antagonism”, the “antagonism of the hypermotility by ethanol, significance” value (“antagonism … significance” for short) (hypermotility by ethanol; 100 mg per os) is reported as “not significant” and the “antagonism … result” value (hypermotility by ethanol; 200 mg per os) is reported as “antagonism”. For the same compound, the “antagonism … significance” value (hypermotility by ethanol; 200 mg per os) was “not significant”, the “antagonism … result” value (hypermotility by ethanol; 400 mg per os) was 0 and the “time of appearance of the convulsions” value ([3]; 1000 mg/kg i.p.) was “significantly (xx)”. For the same compound, the “time of appearance of death” value ([3]; 1000 mg/kg i.p., listed as Mg acetyltaurinate) was “significantly (xx)”.
In the case of `CC(=O)NCCCS(=O)(=O)O` [Sodium acetylhomotaurinate, 3-acetylaminopropanesulfonate of sodium], the “potentialization of narcosis by ethanol” value (narcosis by ethanol) is reported as “top of the series”, the EC50 (erythrocyte membrane; [6]) is reported as 5 mM and the LD50 [2] is reported as “greater than 5 g/kg”. For the same compound, the “antagonism … result” value (hypermotility by ethanol; 400 mg per os) was “slight antagonism which appears at the 50th minute of observation”, the “antagonism … significance” value (hypermotility by ethanol; 400 mg per os) was “not significant” and the “antagonism … result” value (hypermotility by ethanol; 400 mg per os, listed as Sodium acetyhomotaurinate) was “slight anta-”. For the same compound, the “antagonism of ethanol hypermotility / sedative activity, ranking” value (hypermotility by ethanol) was “least active”, the “time of appearance of death” value ([3]; 292 mg/kg i.p.) was “increase, without reaching the level of significance” and the “time of appearance of the convulsions” value ([3]; 292 mg/kg i.p.) was “increase, without reaching the level of significance”.
In the case of `CC(=O)NCCS(=O)(=O)[O-].[Na+]` [Sodium acetyltaurinate, reference compound], the “antagonism … result” value (hypermotility by ethanol; 400 mg per os) is reported as 0.
`CC(=O)NCCCS(=O)(=O)[O-].[Li+]` showed an LD50 (in vivo; LD50, male mouse) of 4260 mg/kg, an LD50 (in vivo; [7]) of 157 mg/kg and an EC50 (erythrocyte membrane; Oryctolagus cuniculus, Erythrocyte, pH 7.4, read-out: ED50, stabilising effect on the erythrocyte membrane) of 10 mM. The “change of LD50 of the cation against the reference salt” value ([4]; mouse, intraperitoneal route) was “significantly increased”.
In the case of `NCCCS(=O)(=O)O` [Homotaurine, 3-aminopropanesulfonic acid], the EC50 (erythrocyte membrane; Oryctolagus cuniculus, Erythrocyte, pH 7.4, rabbit red cells in vitro, hypotonic medium pH 7.4, 53° C., read-out: ED50, stabilising effect on the erythrocyte membrane) is reported as 15 mM and the “effect on rectal temperature” value ([5]; homotaurine by intraperitoneal route) is reported as “does not modify the rectal temperature”.
In the case of `CC(=O)NCCCS(=O)(=O)O` [Calcium acetylhomotaurinate, calcium N-acetylhomotaurinate], the EC50 (erythrocyte membrane; [6]) is reported as 1 mM, the LD50 [2] is reported as 1870 mg/kg and the “LD50 expressed as cation” value [2] is reported as 186 mg cation/kg. The “ranking of hypothermic activity” value [5] was “more active than that of magnesium”, the “antagonism … result” value (hypermotility by ethanol; 80 mg per os) was 0 and the “antagonism … result” value (hypermotility by ethanol; 100 mg per os) was “antagonism”. The “antagonism … significance” value (hypermotility by ethanol; 100 mg per os) was “xxx”, the “antagonism … result” value (hypermotility by ethanol; 200 mg per os) was “antagonism” and the “antagonism … significance” value (hypermotility by ethanol; 200 mg per os) was “xx”. The “antagonism … result” value (hypermotility by ethanol; 200 mg per os, listed as calcium acetylhomotaurinate) was “significant antagonism”, the “antagonism … result” value (hypermotility by ethanol; 400 mg per os) was “antagonism” and the “antagonism … result” value (hypermotility by ethanol; 400 mg per os, listed as calcium acetylhomotaurinate) was “significant antagonism”. The “antagonism … result” value (hypermotility by ethanol; 800 mg per os) was “antagonism”, the “antagonism … significance” value (hypermotility by ethanol; 800 mg per os) was “xx (shorter)” and the “antagonism … result” value (hypermotility by ethanol; 800 mg per os, listed as calcium acetylhomotaurinate) was “this effect is confirmed at the dose of 800 mg/kg but does not appear to be superior to that recorded at 400 mg”. For the same compound, the “antagonism of ethanol hypermotility / sedative activity, ranking” value (hypermotility by ethanol; listed as Ca acetylhomotaurinate) was “greater than that of Mg acetylhomotaurinate”, the “time of appearance of death” value ([3]; 400 mg/kg i.p.) was “significant antagonism (xx)” and the “time of appearance of convulsions” value ([3]; 800 mg/kg i.p.) was “significant”. For the same compound, the “time of appearance of death” value ([3]; 800 mg/kg i.p.) was “significant antagonism (xx)”, the “time of appearance of the convulsions” value ([3]; 1000 mg/kg i.p.) was “very significant (xxx)” and the “anti-convulsivant activity, comparison” value ([3]; mouse, i.p., in words) was “greater than that of Mg acetylhomotaurinate”.
`CC(=O)NCCCS(=O)(=O)O` [Magnesium acetylhomotaurinate, magnesium N-acetylhomotaurinate] gave an LD50 (in vivo; LD50, male mouse) of 2570 mg/kg, an LD50 (in vivo; [7]) of 161 mg/kg and an EC50 (erythrocyte membrane; [6]) of 10 mM. For the same compound, the “change of LD50 of the cation against the reference salt” value ([4]; mouse, intraperitoneal route) was “significantly increased”, the “antagonism … result” value (hypermotility by ethanol; 80 mg per os) was “antagonism” and the “antagonism … result” value (hypermotility by ethanol; 100 mg per os) was “antagonism”. The “antagonism … significance” value (hypermotility by ethanol; 100 mg per os) was “not significant”, the “antagonism … result” value (hypermotility by ethanol; 200 mg per os) was “antagonism” and the “antagonism … result” value (hypermotility by ethanol; 200 mg per os, listed as magnesium acetylhomotaurinate) was “slightly less than that of the calcium salt”. The “antagonism … result” value (hypermotility by ethanol; 400 mg per os) was “antagonism”, the “antagonism … result” value (hypermotility by ethanol; 400 mg per os, listed as magnesium acetylhomotaurinate) was “slightly less than that of the calcium salt” and the “time of appearance of convulsions” value ([3]; 800 mg/kg i.p.) was “significant”.
With `CC(=O)NCCS(=O)(=O)O` [Calcium acetyltaurinate, reference compound] the “LD50 by oral route” value ([4]; oral route, footnote of Table I) was 13090 mg/kg, the “antagonism … result” value (hypermotility by ethanol; 80 mg per os) was 0 and the “antagonism … result” value (hypermotility by ethanol; 800 mg per os) was “antagonism”. The “antagonism … significance” value (hypermotility by ethanol; 800 mg per os) was “x to xx according” and the “time of appearance of death” value ([3]; 1000 mg/kg i.p., listed as Ca acetyltaurinate) was “significantly (x)”.
In the case of `[Cl-].[Cl-].[Mg+2]` [magnesium chloride, reference compound], the “LD50 expressed in Mg++ or Li+” value ([4]; mouse, intraperitoneal route) is reported as 94 mg.
